Test results: patent US20040156869A1, “2-substituted quinazolin-4-ylamine analogues” (Neurogen Corporation, priority 2002, published 2004)

Target: human capsaicin receptor (VR1) (Homo sapiens, UniProt Q8NER1)
Experiment: Capsaicin receptor binding assay ([3H]RTX competition, VR1-transfected HEK293 membranes)

Chain of human capsaicin receptor (VR1) (Q8NER1 whole entry): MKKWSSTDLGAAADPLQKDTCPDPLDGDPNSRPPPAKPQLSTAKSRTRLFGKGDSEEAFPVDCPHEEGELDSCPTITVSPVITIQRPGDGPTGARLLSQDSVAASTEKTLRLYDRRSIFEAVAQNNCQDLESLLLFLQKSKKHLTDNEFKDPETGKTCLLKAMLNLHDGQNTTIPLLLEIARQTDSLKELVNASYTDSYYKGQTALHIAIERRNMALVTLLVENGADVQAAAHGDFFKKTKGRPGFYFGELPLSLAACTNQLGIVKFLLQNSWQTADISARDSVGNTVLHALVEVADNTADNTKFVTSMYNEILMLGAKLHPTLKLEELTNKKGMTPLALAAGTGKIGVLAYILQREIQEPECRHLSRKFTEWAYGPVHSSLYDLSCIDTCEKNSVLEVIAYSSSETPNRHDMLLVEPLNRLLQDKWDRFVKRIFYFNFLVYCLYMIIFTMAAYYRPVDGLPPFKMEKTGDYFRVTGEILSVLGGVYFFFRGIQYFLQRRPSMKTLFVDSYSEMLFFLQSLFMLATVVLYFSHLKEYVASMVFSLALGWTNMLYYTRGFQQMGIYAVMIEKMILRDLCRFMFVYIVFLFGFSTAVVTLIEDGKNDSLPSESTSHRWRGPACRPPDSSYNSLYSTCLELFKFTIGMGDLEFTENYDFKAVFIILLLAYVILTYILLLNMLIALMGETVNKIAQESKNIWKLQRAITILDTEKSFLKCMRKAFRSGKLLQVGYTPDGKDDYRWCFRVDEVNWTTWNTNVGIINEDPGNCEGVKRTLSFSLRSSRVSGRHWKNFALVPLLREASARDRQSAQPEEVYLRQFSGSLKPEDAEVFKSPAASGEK

Row | Ki [µM] | Structure (SMILES)
1 | < 1 | CCc1ccc(Nc2nc(CN3CC(C)O[C@H](C)C3)nc3cc(-c4ncccc4C(F)(F)F)ccc23)cc1 (stereo in doubt) [Compound 653, (R,R)-[2-(2,6-Dimethyl-morpholin-4-ylmethyl)-7-(3-trifluoromethyl-pyridin-2-yl)-quinazolin-4-yl]-(4-ethyl-phenyl)-amine]
2 | < 1 | CC(C)(C)c1ccc(Nc2nc(CN3C[C@@H](O)C[C@@H]3C(=O)O)nc3cc(-c4ncccc4C(F)(F)F)ccc23)cc1 (stereo in doubt) [Compound 753, (R,S)-1-[4-(4-tert-Butyl-phenylamino)-7-(3-trifluoromethyl-pyridin-2-yl)-quinazolin-2-ylmethyl]-4-hydroxy-pyrrolidine-2-carboxylic acid]
3 | < 1 | CC(=O)OCc1nc(Nc2ccc(C(F)(F)F)cc2)c2ccc(-c3ncccc3C(F)(F)F)cc2n1 [Compound 9, Acetic acid 4-(4-trifluoromethyl-phenylamino)-7-(3-trifluoromethyl-pyridin-2-yl)-quinazolin-2-ylmethyl ester]
4 | < 1 | FC(F)(F)c1ccc(Nc2nc(CCCOCc3ccccc3)nc3cc(-c4ncccc4C(F)(F)F)ccc23)cc1 [Compound 12, [2-(3-Benzyloxy-propyl)-7-(3-trifluoromethyl-pyridin-2-yl)-quinazolin-4-yl]-(4-trifluoromethyl-phenyl)-amine]
5 | < 1 | FC(F)(F)c1ccc(Nc2nc(CCCOCc3ccccc3)nc3cc(-c4ncccc4C(F)(F)F)ccc23)cn1 [Compound 13, [2-(3-Benzyloxy-propyl)-7-(3-trifluoromethyl-pyridin-2-yl)-quinazolin-4-yl]-(6-trifluoromethyl-pyridin-3-yl)-amine]
6 | < 1 | CC(C)(C)c1ccc(Nc2nc(CCCOCc3ccccc3)nc3cc(-c4ncccc4C(F)(F)F)ccc23)cn1 [Compound 15, [2-(3-Benzyloxy-propyl)-7-(3-trifluoromethyl-pyridin-2-yl)-quinazolin-4-yl]-(6-tert-butyl-pyridin-3-yl)-amine]
7 | < 1 | CC(C)(C)c1ccc(Nc2nc(CCCO)nc3cc(-c4ncccc4C(F)(F)F)ccc23)cn1 [Compound 16, 3-[4-(6-tert-Butyl-pyridin-3-ylamino)-7-(3-trifluoromethyl-pyridin-2-yl)-quinazolin-2-yl]-propan-1-ol]
8 | < 1 | COC(=O)CCc1nc(Nc2ccc(C(F)(F)F)cc2)c2ccc(-c3ncccc3C(F)(F)F)cc2n1 [Compound 17, 3-[4-(4-Trifluoromethyl-phenylamino)-7-(3-trifluoromethyl-pyridin-2-yl)-quinazolin-2-yl]-propionic acid methyl ester]
9 | < 1 | COC(=O)CCc1nc(Nc2ccc(C(F)(F)F)nc2)c2ccc(-c3ncccc3C(F)(F)F)cc2n1 [Compound 18, 3-[7-(3-Trifluoromethyl-pyridin-2-yl)-4-(6-trifluoromethyl-pyridin-3-ylamino)-quinazolin-2-yl]-propionic acid methyl ester]
10 | < 1 | CCOC(=O)Cc1nc(Nc2ccc(C(F)(F)F)cc2)c2ccc(-c3ncccc3C(F)(F)F)cc2n1 [Compound 20, [4-(4-Trifluoromethyl-phenylamino)-7-(3-trifluoromethyl-pyridin-2-yl)-quinazolin-2-yl]-acetic acid ethyl ester]
11 | < 1 | CC(=O)OCc1nc(Nc2ccc(C(F)(F)F)nc2)c2ccc(-c3ncccc3C(F)(F)F)cc2n1 [Compound 21, Acetic acid 7-(3-trifluoromethyl-pyridin-2-yl)-4-(6-trifluoromethyl-pyridin-3-ylamino)-quinazolin-2-ylmethyl ester]
12 | < 1 | OCc1nc(Nc2ccc(C(F)(F)F)nc2)c2ccc(-c3ncccc3C(F)(F)F)cc2n1 [Compound 22, [7-(3-Trifluoromethyl-pyridin-2-yl)-4-(6-trifluoromethyl-pyridin-3-ylamino)-quinazolin-2-yl]-methanol]
13 | < 1 | CC(c1ccc(Nc2nc(COCc3ccccc3)nc3cc(-c4ncccc4C(F)(F)F)ccc23)cc1)C(F)(F)F (centres unmarked) [Compound 23, [2-Benzyloxymethyl-7-(3-trifluoromethyl-pyridin-2-yl)-quinazolin-4-yl]-[4-(2,2,2-trifluoro-1-methyl-ethyl)-phenyl]-amine]
14 | < 1 | FC(F)(F)c1ccc(Nc2nc(COCc3ccccc3)nc3cc(-c4ncccc4C(F)(F)F)ccc23)cn1 [Compound 25, [2-Benzyloxymethyl-7-(3-trifluoromethyl-pyridin-2-yl)-quinazolin-4-yl]-(6-trifluoromethyl-pyridin-3-yl)-amine]
15 | < 1 | FC(F)(F)c1ccc(Nc2nc(COCc3ccccc3)nc3cc(-c4ncccc4C(F)(F)F)ccc23)nc1 [Compound 26, [2-Benzyloxymethyl-7-(3-trifluoromethyl-pyridin-2-yl)-quinazolin-4-yl]-(5-trifluoromethyl-pyridin-2-yl)-amine]
16 | < 1 | FC(F)(F)Oc1ccc(Nc2nc(COCc3ccccc3)nc3cc(-c4ncccc4C(F)(F)F)ccc23)cc1 [Compound 27, [2-Benzyloxymethyl-7-(3-trifluoromethyl-pyridin-2-yl)-quinazolin-4-yl]-(4-trifluoromethoxy-phenyl)-amine]

Row | Ki [µM] | Structure (SMILES)
17 | < 1 | O=S(=O)(c1ccc(Nc2nc(COCc3ccccc3)nc3cc(-c4ncccc4C(F)(F)F)ccc23)cc1)C(F)(F)F [Compound 28, [2-Benzyloxymethyl-7-(3-trifluoromethyl-pyridin-2-yl)-quinazolin-4-yl]-(4-trifluoromethanesulfonyl-phenyl)-amine]
18 | < 1 | CCN(CC)CCOCc1nc(Nc2ccc(C(F)(F)F)nc2)c2ccc(-c3ncccc3C(F)(F)F)cc2n1 [Compound 29, [2-(2-Diethylamino-ethoxymethyl)-7-(3-trifluoromethyl-pyridin-2-yl)-quinazolin-4-yl]-(6-trifluoromethyl-pyridin-3-yl)-amine]
19 | < 1 | FC(F)(F)c1ccc(Nc2nc(COCCN3CCCCC3)nc3cc(-c4ncccc4C(F)(F)F)ccc23)cn1 [Compound 30, [2-(2-Piperidin-1-yl-ethoxymethyl)-7-(3-trifluoromethyl-pyridin-2-yl)-quinazolin-4-yl]-(6-trifluoromethyl-pyridin-3-yl)-amine]
20 | < 1 | CN1CCC(OCc2nc(Nc3ccc(C(F)(F)F)nc3)c3ccc(-c4ncccc4C(F)(F)F)cc3n2)CC1 [Compound 31, [2-(1-Methyl-piperidin-4-yloxymethyl)-7-(3-trifluoromethyl-pyridin-2-yl)-quinazolin-4-yl]-(6-trifluoromethyl-pyridin-3-yl)-amine]
21 | < 1 | COCc1nc(Nc2ccc(S(C)(=O)=O)cc2)c2ccc(-c3ncccc3C(F)(F)F)cc2n1 [Compound 32, (4-Methanesulfonyl-phenyl)-[2-methoxymethyl-7-(3-trifluoromethyl-pyridin-2-yl)-quinazolin-4-yl]-amine]
22 | < 1 | COCc1nc(Nc2ccc(S(=O)(=O)C(F)(F)F)cc2)c2ccc(-c3ncccc3C(F)(F)F)cc2n1 [Compound 35, [2-Methoxymethyl-7-(3-trifluoromethyl-pyridin-2-yl)-quinazolin-4-yl]-(4-trifluoromethanesulfonyl-phenyl)-amine]
23 | < 1 | COCc1nc(Nc2ccc(C(C)(C)COC)cc2)c2ccc(-c3ncccc3C(F)(F)F)cc2n1 [Compound 36, [4-(2-Methoxy-1,1-dimethyl-ethyl)-phenyl]-[2-methoxymethyl-7-(3-trifluoromethyl-pyridin-2-yl)-quinazolin-4-yl]-amine]
24 | < 1 | COCc1nc(Nc2ccc(S(=O)(=O)NC(C)(C)C)cc2)c2ccc(-c3ncccc3C(F)(F)F)cc2n1 [Compound 37, N-tert-Butyl-4-[2-methoxymethyl-7-(3-trifluoromethyl-pyridin-2-yl)-quinazolin-4-ylamino]-benzenesulfonamide]
25 | < 1 | CC(C)(C)NS(=O)(=O)c1ccc(Nc2nc(COCc3ccccc3)nc3cc(-c4ncccc4C(F)(F)F)ccc23)cc1 [Compound 38, 4-[2-Benzyloxymethyl-7-(3-trifluoromethyl-pyridin-2-yl)-quinazolin-4-ylamino]-N-tert-butyl-benzenesulfonamide]
26 | < 1 | CS(=O)(=O)c1ccc(Nc2nc(COCc3ccccc3)nc3cc(-c4ncccc4C(F)(F)F)ccc23)cc1 [Compound 40, [2-Benzyloxymethyl-7-(3-trifluoromethyl-pyridin-2-yl)-quinazolin-4-yl]-(4-methanesulfonyl-phenyl)-amine]
27 | < 1 | CC(C)(C#N)c1ccc(Nc2nc(COCc3ccccc3)nc3cc(-c4ncccc4C(F)(F)F)ccc23)cc1 [Compound 41, 2-{4-[2-Benzyloxymethyl-7-(3-trifluoromethyl-pyridin-2-yl)-quinazolin-4-ylamino]-phenyl}-2-methyl-propionitrile]
28 | < 1 | COCC(C)(C)c1ccc(Nc2nc(COCc3ccccc3)nc3cc(-c4ncccc4C(F)(F)F)ccc23)cc1 [Compound 42, [2-Benzyloxymethyl-7-(3-trifluoromethyl-pyridin-2-yl)-quinazolin-4-yl]-[4-(2-methoxy-1,1-dimethyl-ethyl)-phenyl]-amine]
29 | < 1 | CC(C)(C)c1ccc(Nc2nc(COCc3ccccc3)nc3cc(-c4ncccc4C(F)(F)F)ccc23)cc1 [Compound 43, [2-Benzyloxymethyl-7-(3-trifluoromethyl-pyridin-2-yl)-quinazolin-4-yl]-(4-tert-butyl-phenyl)-amine]
30 | < 1 | CS(=O)(=O)N1CCc2cc(Nc3nc(COCc4ccccc4)nc4cc(-c5ncccc5C(F)(F)F)ccc34)ccc21 [Compound 44, [2-Benzyloxymethyl-7-(3-trifluoromethyl-pyridin-2-yl)-quinazolin-4-yl]-(1-methanesulfonyl-2,3-dihydro-1H-indol-5-yl)-amine]
31 | < 1 | FC(F)(F)c1ccc(Nc2nc(COCc3cccnc3)nc3cc(-c4ncccc4C(F)(F)F)ccc23)cn1 [Compound 45, [2-(Pyridin-3-ylmethoxymethyl)-7-(3-trifluoromethyl-pyridin-2-yl)-quinazolin-4-yl]-(6-trifluoromethyl-pyridin-3-yl)-amine]
32 | < 1 | FC(F)(F)c1ccc(Nc2nc(COCc3ccncc3)nc3cc(-c4ncccc4C(F)(F)F)ccc23)cn1 [Compound 46, [2-(Pyridin-4-ylmethoxymethyl)-7-(3-trifluoromethyl-pyridin-2-yl)-quinazolin-4-yl]-(6-trifluoromethyl-pyridin-3-yl)-amine]
